Source: EP4782431A1 (Suzhou Merna Therapeutics Co. Ltd, priority 2023, dated 2025)

What was measured:
HaCaT cells = experiment: m6A methylation level of drug-treated HaCaT keratinocytes by nanopore sequencing; type: cell-based, human; conditions: 50 nM drug, 24 hours, vs blank control group
Experimental: 1*10^8 HaCaT cells were seeded in culture dishes, into which 50 nM drugs (including sorafenib, capecitabine, docetaxel, and osimertinib) were added, respectively. The cells were cultured in an incubator containing 5% CO2 at 37°C for 24 hours and washed with PBS after culture media were removed. Centrifugation was performed, the supernatant was discarded, and then, 400 µL of an RLT cell lysis buffer (QIAGEN, Cat.#79216) was added. A portion of samples were selected, into which 400 µL of 70% ethanol was added. The mixture was evenly stirred and then transferred to an RNeasy mini column, and RNA was extracted using an RNeasy mini kit (QIAGEN, Cat.#74104). 2 µL of an RNA sample was selected and dissolved in 98 µL of a 10 mM Tris-HCl buffer solution, and the absorbance at 260 nm was measured using a Nanodrop (Thermo Fisher Scientific) to determine the RNA concentration.
40 µg of an RNA sample was selected for enrichment of mRNA (PolyA+RNA) using an NEBNext Poly(A) mRNA magnetic isolation module (NEB, Cat.#E7490), and then, a 3' end of the above enriched mRNA (PolyA+RNA) molecule was ligated with reverse transcription adapter RTA using a direct RNA sequencing kit (Oxford Nanopore Technologies, Cat.#SQK-RNA002). A reverse transcription reaction was performed with the mRNA (PolyA+RNA) molecule as a template to synthesize a complementary strand, a terminal end of the reverse transcription adapter RTA was ligated with a sequencing adapter (RNA adapter) to form a final sequencing library, and quantitative detection was performed using a Qubit™ dsDNA HS assay kit (Invitrogen, Cat.#LOT2133187).
After quality inspection of the library, the prepared sequencing library was loaded onto a PromethION flow cell chip (Oxford Nanopore Technologies, Cat.#FLO-MIN106D), and placed in a PromethION sequencer (Oxford Nanopore Technologies) for sequencing by selecting a matched sequencing mode. Basecalling was performed on sequencing data through guppy, and m6A methylation analysis was performed on original fast5 data.

THP-1 cells = experiment: m6A methylation level of THP-1 cells (LC-MS); type: cell-based; conditions: 24 hours
Experimental: 1*10^8 THP-1 cells were seeded in culture dishes, into which 4 nM and 400 nM compound of formula (I), 4 nM and 4 µM nicotinamide, and 5 µM m6A methyltransferase inhibitor UZH2 were added, respectively. The cells were cultured in an incubator containing 5% CO2 at 37°C for 24 hours. After discarding culture media and washing with PBS, the cells were centrifuged, and the supernatant was discarded. 400 µL of an RLT cell lysis buffer was added, and the cells were stored at -80°C. A portion of samples were selected, into which 400 µL of 70% ethanol was added and evenly stirred. 700 µL of a sample was transferred to an RNeasy centrifugation column and centrifuged for 15 seconds (8,000 g, 25°C). Then, 700 µL of an RW1 buffer solution was added and centrifuged for 15 seconds (8,000 g, 25°C), followed by the addition of 500 µL of an RPE buffer solution and centrifugation for 16 seconds (8,000 g, 25°C). The above steps were repeated twice, followed by centrifugation for 2 minutes to completely remove the eluent. 30 µL of nuclease-free water was added to a chromatographic column, and the cells were incubated for 5 minutes and then centrifuged for 2 minutes (12,000 g, 25°C). The steps were repeated 3 times. 2 µL of an RNA sample was selected and dissolved in 98 µL of a 10 mM Tris buffer solution, and the absorbance at 260 nm was measured using a Nanodrop to determine the RNA concentration.
50 µg of total RNA was selected and dissolved in 100 µL of nuclease-free water. Oligo (dT) magnetic beads were resuspended, 50 µL of the magnetic beads were transferred to a 1.5 mL test tube, 500 µL of a binding buffer solution was added, the mixture was allowed to stand, and the supernatant was removed. 100 µL of an RNA sample was added to 200 µL of a magnetic bead suspension for mixing, the mixture was stirred and incubated in a Thermomixer at 25°C for 5 minutes, the supernatant was discarded, and then 200 µL of a washing buffer solution was added. The steps were repeated 2 times, and then centrifugation was performed for 10 seconds (2,000 g, 25°C). 50 µL of an elution buffer solution was added and evenly mixed, the mixture was heated to 75°C, the supernatant was transferred to a new 1.5 mL test tube and purified using an RNA Clean & Concentrator kit, and the RNA concentration was determined.
20 µL (approximately 200 ng) of an mRNA sample and 20 µL of a Nuclease P1 digestion premix (including 0.5 µL of 2 unit/µL Nuclease P1, 0.4 µL of 5 M NaCl, 2 µL of 0.1 M ZnCl2, and 17.1 µL of PCR-grade water) were added into each test tube, and the mixture was stirred and incubated in a Thermomixer at 37°C for 2 hours. […] 20 µL of the supernatant was collected, an m6A methylation fragment was analyzed by LC-MS, and the m6A inhibition rate was calculated. […]

[1] = test system: keratinocyte differentiation markers KRT1, KRT10, Loricrin, and Involucrin; experiment: inhibition of HBEGF-induced differentiation of HaCaT keratinocytes (RT-PCR); type: cell-based; conditions: with 2.5 ng/mL recombinant human HBEGF protein, 24 hours
Experimental: Human HaCaT keratinocytes were cultured in DMEM culture medium containing 10% fetal bovine serum, 100 U/mL penicillin, and 100 µg/mL streptomycin. The cells were seeded into a 96-well plate at a density of […] and placed in an incubator containing 5% carbon dioxide for culture at 37°C for 24 hours. An equal volume of DMSO was added into control well 1, a 2.5 ng/mL recombinant human HBEGF protein (Abcam, ab205523) was added into control well 2, and a 2.5 ng/mL recombinant human HBEGF protein and corresponding concentrations of test compounds were added into sample wells. The cells were continuously cultured for 24 hours, washed with PBS, and then collected by high-speed centrifugation. Total RNA was extracted using Trizol reagent (Sigma Aldrich). 1 µg of RNA was reverse-transcribed into cDNA using a cDNA reverse transcription kit (Transgene Biotech, AT311-03). 1.25 µL of a primer (with a primer sequence shown in Table 2), 10 µL of an iTag Universal SYBR Green supermix (Bio-Rad, 172-5125), and an appropriate amount of DEPC ultrapure water were added to formulate 20 µL of a reaction solution to perform an RT-PCR reaction. Upon completion of the reaction, the reaction solution was subjected to agarose gel electrophoresis to determine the mRNA expression level of keratinocyte differentiation markers KRT1, KRT10, Loricrin, and Involucrin. […]

CNC(=O)c1cc(Oc2ccc(NC(=O)Nc3ccc(Cl)c(C(F)(F)F)c3)cc2)ccn1 [Sorafenib, sorafenib]
m6A methylation levels of HaCaT cells higher than that of the control group (HaCaT cells): 5.05 fold

NC(=O)[C@H]1CCCc2c1[nH]c1ccc(Cl)cc21 [Compound of formula (I), (S)-6-chloro-2,3,4,9-tetrahydro-1H-carbazole-carboxamide]
m6A methylation level of mRNA of the cells (THP-1 cells; 4 nM and 400 nM, concentration-dependent): significantly inhibit
m6A inhibition activity (THP-1 cells; 400 nM): comparable to that of the m6A methyltransferase inhibitor UZH2 at a concentration of 5 µM
mRNA expression level of the HaCaT differentiation markers KRT1, KRT10, Loricrin, and Involucrin [1]: significantly inhibited

NC(=O)c1cccnc1 [Nicotinamide, nicotinamide]
inhibitory effect on the m6A methylation level of mRNA of the cells (THP-1 cells; high concentration (4 µM)): no inhibitory effect
inhibitory effect on the m6A methylation level of mRNA of the cells (THP-1 cells; low concentration (4 nM)): no inhibitory effect

C=CC(=O)Nc1cc(Nc2nccc(-c3cn(C)c4ccccc34)n2)c(OC)cc1N(C)CCN(C)C [Osimertinib, osimertinib]
m6A methylation levels of HaCaT cells higher than that of the control group (HaCaT cells): 5.13 fold
